From patent US10759774B2, “Inhibitors of hepatitis B virus targeting capsid assembly” (THE CURATORS OF THE UNIVERSITY OF MISSOURI, priority 2017, dated 2020)

Assays:
[1] = Cytotoxicity with the XTT assay (Table 1); details: human, HepAD38 cells
HBV [2] = test: Antiviral screening / dose response, total intracellular HBV DNA by qPCR in HepAD38 cells; assay type: cell-based, hepatitis B virus (HBV); details: for SI (Selectivity Index): CC50/EC50; for SI (Selectivity Index) / EC50: Table 1; for EC50: Hepatitis B virus, HepAD38 cells, total intracellular HBV DNA as marker
Protocol: HepAD38 cells (ATCC; Ladner, et al., Antimicrob. Agents Chemother. 41:1715-1720, 1997) were maintained in tet media [Dulbecco's Modified Eagle Medium (DMEM) and 10% fetal bovine serum (FBS) plus 0.4 μg/ml tetracycline (tet) and 400 μg/ml G418 (Gibco; Gaithersburg, Md.)]. Cells were incubated at 37° C. with 5% CO2.
Total DNA from HBV-infected cells was extracted using the QIAamp DNA Blood Mini Kit (Qiagen, Germantown, Md.). […] Amplification was conducted by denaturation at 95° C. for 10 min, followed by 40 cycles of denaturation at 95° C. for 15 s and annealing/extension at 60° C. for 1 min using PerfeCTa SYBR® Green FastMix reaction cocktail (Quanta Biosciences, Beverly, Mass.). Amplification was carried out in a PIKOREAL™ Real-Time PCR System. A standard curve was generated with dilutions of the HBV genome-containing plasmid pCMV-HBV-LE-II (Tavis, et al., PLoS Pathogens 9:e1003125, 2013).
(§1) HepAD38 cells (5×10^4) were plated in 96-well plates in tet media. The next day, cells were washed 2× with PBS, and the media was replaced with complete media (DMEM, 10% FBS) containing compounds. Fresh complete media with compounds was added again after 2 days. After 2 additional days, cells were washed with PBS, trypsinized, and pelleted by centrifugation. The cell pellet was resuspended in 200 μl PBS, and DNA was extracted and analyzed as above. For dose responses, values were plotted in GraphPad Prism 5 and analyzed with the log (inhibitor) vs. normalized response—variable slope equation.
For antiviral screening, HepAD38 cells were treated with 10 μM of each hit compound, and anti-HBV activity was determined by the level of viral DNA.

[3] = system: primary human hepatocytes; details: cited from earlier work
HBV [4] = details: cited from earlier work
HBV [5] = details: rodent models; cited from earlier work
[6] = high doses; cited from earlier work
HBV wild-type (WT) Cp = test: HBV core-associated DNA by qPCR in Huh7 cells transfected with wild-type plasmid; assay type: cell-based, hepatitis B virus (HBV); details: Bay 38-7690 500 nM, DVR-56 250 nM, ZW-935 250 nM, HF9C6 4 μM
HBV Cp I105V mutant = test: HBV core-associated DNA by qPCR in Huh7 cells transfected with Cp mutant plasmid; assay type: cell-based, hepatitis B virus (HBV); details: single dose: DVR-56 250 nM, ZW-935 250 nM, HF9C6 4 μM
Excerpt: (§2) The binding site for HAPs and SBAs has been found using X-ray crystallography and mutagenesis techniques. […] To probe this binding site, HBV-expressing plasmids with mutations in Cp (Y118F, T109S, T109M, T109I, I105V, I105L, and I105T) were generated (Klumpp, et al., Proc. Natl. Acad. Sci. USA 112:15196-15201, 2015).

HBV Cp T109S mutant = test: as above; assay type: cell-based, hepatitis B virus (HBV); details: single dose: Bay 38-7690 500 nM, DVR-56 250 nM, ZW-935 250 nM, HF9C6 4 μM
Excerpt: as §2

HBV Cp T109I mutant = test: as above; assay type: cell-based, hepatitis B virus (HBV); details: single dose: Bay 38-7690 500 nM, DVR-56 250 nM, ZW-935 250 nM, HF9C6 4 μM
Excerpt: as §2

[7] = Cytotoxicity, Cell Proliferation Kit II (XTT) (Table 2); assay type: cell-based; details: human, HepG2 cells
HBV capsid protein (Cp) [8] = target: T1, HBV capsid protein (Cp) (Hepatitis B virus genotype D subtype ayw, UniProt P03146); details: HepAD38 cells; concentrations up to 20 μM (~5×EC50)
HepAD38 cells = test: Cytotoxicity with the XTT assay (Table 1)
HBV [9] = test: Cell-based anti-HBV activity of HF9C6 analogs (Table 2; HBV DNA in HepAD38 cells); details: Hepatitis B virus, Table 2, cell-based, read-out: EC50
Protocol: as §1
HepAD38 cells were seeded in 96-well plates (3×10^4 cells/well) in tet media. […] After 2 days, the media was removed, and fresh media containing compounds was added. After 2 additional days, cells were washed with PBS and lysed with 10 mM Tris (pH 7.5), 1mM EDTA, 100mM NaCl, 1% NP-40 at 37° C. for 30 min. 60 μl of lysate was added to 60 μl of 1 M NaOH, 1.5 M NaCl and incubated at RT for 5 min to denature DNA. 120 μl of 1 M Tris (pH 7.4), 2 M NaCl was added. Samples were transferred to positively charged nylon membranes (Roche) using a vacuum dot blot manifold. The wells were washed with 200 μl of 20× SSC (3M NaCl, 300 mM sodium citrate), and the DNA was UV crosslinked to the membranes. […] Membranes were incubated with CDP-STAR® chemiluminescent substrate (Roche), imaged by chemiluminescence, and quantified by densitometry. Values were plotted in GraphPad Prism 5 and analyzed with the log (inhibitor) vs. normalized response—variable slope equation.

HBV capsid protein (Cp) [10] = target: T1, HBV capsid protein (Cp); details: HepAD38 cells; 20 μM
[11] = target: T2, C1502 (HBV capsid protein assembly domain dimer) (Hepatitis B virus genotype D subtype adw, UniProt P03147, R150C); test: In vitro capsid assembly analyzed by transmission electron microscopy (TEM); assay type: biochemical; details: C1502 10 μM assembled with compound 20 μM
T2 construct: the 149 amino acid assembly domain of HBV capsid protein; made in house; host or cells: E. coli BL21 (DE3), pET11a
Excerpt: Capsids assembled in the presence of the carrier DMSO were spherical, ˜40 nm in diameter, and dispersed across the TEM grid.

Compound	CC50 [1]	SI (Selectivity Index) (HBV [2])	EC50 (HBV [2])	suppression of viral DNA production (HBV wild-type (WT) Cp)	resistance profile, I105V mutant (HBV Cp I105V mutant)	resistance profile, T109S mutant (HBV Cp T109S mutant)	resistance profile, T109I mutant (HBV Cp T109I mutant)	CC50 [7]	other results
Nc1ccn([C@@H]2CS[C@H](CO)O2)c(=O)n1 [Lamivudine (3TC), Lamivudine, reference compound]	> 100 µM	>1,111	0.09 ± 0.01 µM						
CCOC(=O)C1=C(CN2CCOCC2)NC(c2nccs2)=NC1c1ccc(F)cc1Br (stereo not drawn) [GLS-4, morphothiadine mesilate]									toxicity to primary human hepatocytes [3]: much less toxic
IFN-α									virological response, share of patients (HBV [4]): < 10%
COC(=O)C1=C(C)NC(c2ncc(F)cc2F)=N[C@H]1c1ccc(F)cc1Cl [Bay 41-4109]									inhibition of the virus replication cycle (HBV [5]): inhibit the virus replication cycle; hepatotoxicity [6]: hepatotoxic
Cc1cc(NC(=O)c2sc(N)c(C(N)=O)c2C)ccc1F [ZW-935, 5-Amino-N2-(4-fluoro-3-methylphenyl)-3-methylthiophene-2,4-dicarboxamide]				75%	does not impart significant resistance	resistance	hypersusceptibility	> 100 µM	
Cc1c(C(=O)Nc2ccccc2)sc(N)c1C(N)=O [HF9C6]	> 300 µM	>83	3.6 ± 0.2 µM	75%	does not impart significant resistance	resistance	hypersusceptibility	> 100 µM	Cp levels (Western blot) (HBV capsid protein (Cp) [8]): did not reduce Cp levels; cytotoxicity (in words) (HepAD38 cells): no observable cytotoxicity; EC50 (HBV [9]): 34 ± 0.6 µM; Cp distribution/aggregation in cells (HBV capsid protein (Cp) [10]): concentrated in large foci throughout the cell; Cp nuclear localization (HBV capsid protein (Cp) [10]): excluded from the nucleus; reduction of HBV DNA (HBV [2]; HepAD38 cells treated with 10 μM, vs DMSO control): ~80%; capsid morphology by TEM [11]: heterogeneous in shape and size, and formed large aggregates on the grid
